Structures are written as SMILES.

In general, inhibition refers to the change of the read-out against control, counted positive when it falls. Broadly, the melting point is the temperature, or range, at which the solid turns liquid.

For one series, the system named is Sclerotinia sclerotiorum. Briefly: Sclerotinia sclerotiorum liquid culture (cottony rot / white mold). It is filed as cell-based. Conditions: PDB, 24° C., 3-4 days after application, read-out: control of Sclerotinia sclerotiorum (inhibition of growth, photometric). As for the experimental part: Sclerotinia sclerotiorum (Cottony Rot/White Mold): Mycelia fragments of a newly grown liquid culture of the fungus were directly mixed into nutrient broth (PDB potato dextrose broth). After placing a (DMSO) solution of test compound into a microtiter plate (96-well format) the nutrient broth containing the fungal material was added. The test plates are incubated at 24° C. and the inhibition of growth was determined photometrically 3-4 days after application.

Series [1] concerns Phaeosphaeria nodorum (Septoria nodorum). Put plainly: Phaeosphaeria nodorum (Septoria nodorum) / wheat / leaf disc preventative (glume blotch). Format: in vivo. Conditions: Parastagonospora nodorum, foliar, wheat leaf segments cv Kanzler, inoculated 2 days after application, assessed 5-7 days after application, read-out: control of Phaeosphaeria nodorum (percent disease control compared to untreated). As for the experimental part:
Phaeosphaeria nodorum (Septoria nodorum)/Wheat/Leaf Disc Preventative (Glume Blotch): Wheat leaf segments cv Kanzler were placed on agar in a 24-well plate and sprayed with formulated test compound diluted in water at an application rate of 200 ppm. The leaf disks are inoculated with a spore suspension of the fungus 2 days after application. The inoculated test leaf disks are incubated at 20° C. and 75% relative humidity under a light regime of 12/12 h (light/dark) in a climate cabinet and the activity of a compound is assessed as percent disease control compared to untreated when an appropriate level of disease damage appears in untreated check leaf disks (5-7 days after application).

In the next series the test system is Pyrenophora teres. Put plainly: Pyrenophora teres / barley / leaf disc preventative (net blotch). Format: in vivo. Conditions: foliar, barley leaf segments cv Hasso, inoculated two days after application, assessed 5-7 days after application, read-out: control of Pyrenophora teres (disease control compared to untreated). In a few lines:
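Barley cv Hasso leaf segments on agar sprayed with compound at 200 ppm, inoculated with spores two days later. Kept at 20 °C, 65% RH, 12/12 h light; disease control versus untreated scored 5-7 days after application.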

Series [2] deals with Botryotinia fuckeliana (Botrytis cinerea). Put plainly: Botryotinia fuckeliana (Botrytis cinerea) / liquid culture (gray mould). It is filed as cell-based. Conditions: Vogels broth, 24° C., 3-4 days after application, read-out: control of Botryotinia fuckeliana (inhibition of growth, photometric). In a few lines:
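Botrytis cinerea conidia in Vogels broth were added to test compound applied from DMSO at 200 ppm. Incubation at 24 °C; growth inhibition read photometrically 3-4 days after application.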

Series [3] has as its system Mycosphaerella graminicola (Septoria tritici). Put plainly: Mycosphaerella graminicola (Septoria tritici) / liquid culture (Septoria blotch). Format: cell-based. Conditions: Zymoseptoria tritici, PDB, 24° C., 4-5 days after application, read-out: control of Mycosphaerella graminicola (inhibition of growth, photometric). In a few lines:
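Cryo-stored conidia in potato dextrose broth were added to compound in DMSO at 200 ppm in microtiter plates. Plates were incubated at 24 °C and growth inhibition was measured photometrically 4–5 days after application.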

For series [4], the system named is Thanatephorus cucumeris (Rhizoctonia solani). Put plainly: Thanatephorus cucumeris (Rhizoctonia solani) / liquid culture (foot rot, damping-off). Format: cell-based. Conditions: PDB, 24° C., 3-4 days after application, read-out: control of Thanatephorus cucumeris (inhibition of growth, photometric). Put shortly: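 Mycelial fragments in potato dextrose broth exposed to test compounds at 200 ppm (from DMSO solution), incubated at 24° C. Growth inhibition read photometrically 3-4 days after application.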

The test system of a further series is Gaeumannomyces graminis. Put plainly: Gaeumannomyces graminis / liquid culture (take-all of cereals). Conditions: PDB, 24° C., 4-5 days after application, read-out: control of Gaeumannomyces graminis (inhibition of growth, photometric). It is filed as cell-based. As for the experimental part: Gaeumannomyces graminis/Liquid Culture (Take-all of Cereals): Mycelial fragments of the fungus from cryogenic storage were directly mixed into nutrient broth (PDB potato dextrose broth). After placing a DMSO solution of test compound into a 96-well microtiter plate at an application rate of 200 ppm, the nutrient broth […], containing the fungal spores is added. The test plates were incubated at 24° C. and the inhibition of growth was determined photometrically 4-5 days after application.

In series [5] the test system is Mycosphaerella arachidis (Cercospora arachidicola). Put plainly: Mycosphaerella arachidis (Cercospora arachidicola) / liquid culture (early leaf spot). Conditions: PDB, 24° C., 4-5 days after application, read-out: control of Mycosphaerella arachidis (inhibition of growth, photometric). Format: cell-based. As for the experimental part: Mycosphaerella Arachidis (Cercospora arachidicola)/Liquid Culture (Early Leaf Spot): Conidia of the fungus from cryogenic storage were directly mixed into nutrient broth (PDB potato dextrose broth). After placing a DMSO solution of test compound into a 96-well microtiter plate at an application rate of 200 ppm, the nutrient broth containing the fungal spores was added. The test plates are incubated at 24° C. and the inhibition of growth was determined photometrically 4-5 days after application.

Series [6] relates to Puccinia recondita f. sp. Tritici. Put plainly: Puccinia recondita f. sp. tritici / wheat / leaf disc preventative (brown rust). Conditions: foliar, wheat leaf segments cv Kanzler, inoculated 1 day after application, assessed 7-9 days after application, read-out: control of Puccinia recondita f. sp. Tritici (percent disease control compared to untreated). Format: in vivo. Put shortly:
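Leaf segments of wheat cv Kanzler on agar were sprayed with formulated compound at 200 ppm and inoculated with spores 1 day later. Incubation was at 19° C, 75% relative humidity and 12/12 h light/dark. Activity was scored 7-9 days after application as percent disease control versus untreated.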

In series [7] the test system is Monographella nivalis (Microdochium nivale). Briefly: Monographella nivalis (Microdochium nivale) / liquid culture (foot rot cereals). Format: cell-based. Conditions: PDB, 24° C., 4-5 days after application, read-out: control of Monographella nivalis (inhibition of growth, photometric). As for the experimental part: Monographella nivalis (Microdochium nivale)/Liquid Culture (Foot Rot Cereals): Conidia of the fungus from cryogenic storage were directly mixed into nutrient broth (PDB potato dextrose broth). After placing a DMSO solution of test compound into a 96-well microtiter plate at an application rate of 200 ppm, the nutrient broth containing the fungal spores was added. The test plates were incubated at 24° C. and the inhibition of growth was determined photometrically 4-5 days after application.

Series [8] has as its system Glomerella lagenarium (Colletotrichum lagenarium). Briefly: Glomerella lagenarium (Colletotrichum lagenarium) / liquid culture (anthracnose). It is filed as cell-based. Conditions: Colletotrichum orbiculare, PDB, 24° C., 3-4 days after application, read-out: control of Glomerella lagenarium (inhibition of growth, photometric). As for the experimental part: Glomerella lagenarium (Colletotrichum lagenarium)/Liquid Culture (Anthracnose): Conidia of the fungus from cryogenic storage were directly mixed into nutrient broth (PDB potato dextrose broth). After placing a DMSO solution of test compound into a 96-well microtiter plate at an application rate of 200 ppm, the nutrient broth containing the fungal spores was added. The test plates were incubated at 24° C. and the inhibition of growth is measured photometrically 3-4 days after application.

For the compound `CCn1c(-n2ncnc2N)nc2cncc(-c3cc4ccccc4nc3F)c21` [Compound 66, 2-[1-ethyl-7-(2-fluoroquinolin-3-yl)imidazo[4,5-c]pyridin-2-yl]-1,2,4-triazol-3-amine], the inhibition at 20 ppm (in the series on Sclerotinia sclerotiorum; in series [2]; in series [3]; in series [4]; with Gaeumannomyces graminis) was not below 80% each time. The pest or weed control at 200 ppm (in series [1]; in the series on Pyrenophora teres) was not below 80% throughout.

In the case of `CCCC=Cc1cncc2nc(-n3ncnc3N)n(CC)c12` [Compound 68, 2-(1-ethyl-7-pent-1-enylimidazo[4,5-c]pyridin-2-yl)-1,2,4-triazol-3-amine], the inhibition at 20 ppm (in series [5]; in the series with Sclerotinia sclerotiorum; in series [2]; in series [3]; in series [4]; in the series on Gaeumannomyces graminis) was not below 80% in each case. The pest or weed control at 200 ppm (in [1]; in [6]; with Pyrenophora teres) was not below 80% in each case.

With `CCn1c(-n2ncnc2N)nc2cncc(-c3ccccc3C)c21` [Compound 72, 2-[1-ethyl-7-(2-methylphenyl)imidazo[4,5-c]pyridin-2-yl]-1,2,4-triazol-3-amine], the inhibition at 20 ppm in [5], in series [2], in series [3] and in series [4] was not below 80% each time. Moreover, the pest or weed control at 200 ppm (in series [1]; in series [6]; in the series with Pyrenophora teres) was not below 80% in each case.

On to `CCn1c(-n2ncnc2N)nc2cncc(-c3cc(Cl)ccc3F)c21` [Compound 91, 2-[7-(5-chloro-2-fluorophenyl)-1-ethylimidazo[4,5-c]pyridin-2-yl]-1,2,4-triazol-3-amine], for which the inhibition at 20 ppm (in series [7]; with Sclerotinia sclerotiorum; in series [2]; in series [3]; in [8]; in series [4]) was not below 80% each time. Further, the inhibition at 20 ppm with Gaeumannomyces graminis was not below 80%. In addition, the pest or weed control at 200 ppm (in [6]; in the series with Pyrenophora teres) was not below 80% each time.

As to `CCn1c(-n2ncnc2N)nc2cncc(-c3ccc(OC)cc3Cl)c21` [Compound 94, 2-[7-(2-chloro-4-methoxyphenyl)-1-ethylimidazo[4,5-c]pyridin-2-yl]-1,2,4-triazol-3-amine], the inhibition at 20 ppm (in series [7]; with Sclerotinia sclerotiorum; in series [2]; in series [3]; in series [8]; in series [4]) was not below 80% throughout. For the same compound, the inhibition at 20 ppm in the series with Gaeumannomyces graminis is not below 80%. Moreover, the pest or weed control at 200 ppm (in series [1]; in [6]; in the series with Pyrenophora teres) was not below 80% in each case.

As to `CCn1c(-n2ncnc2N)nc2cncc(-c3ccc(C(F)(F)F)cc3Cl)c21` [Compound 97], the inhibition at 20 ppm (in series [7]; with Sclerotinia sclerotiorum; in [2]; in series [3]; in [8]; in [4]) was not below 80% each time. The inhibition at 20 ppm in the series on Gaeumannomyces graminis was not below 80%. In addition, the pest or weed control at 200 ppm (in series [6]; in the series on Pyrenophora teres) was not below 80% throughout.

For the compound `CCCON=C(C)c1cncc2nc(-n3ncnc3N)n(CC)c12` [Compound 143], the inhibition at 20 ppm (in the series on Sclerotinia sclerotiorum; in series [2]; in series [3]; in [8]; in series [4]) was not below 80% each time. The pest or weed control at 200 ppm (in [1]; in series [6]; with Pyrenophora teres) was not below 80% throughout.

For `C=C(Cl)CO/N=C(\C)c1cncc2nc(-n3ncnc3N)n(CC)c12` [Compound 152], the inhibition at 20 ppm in series [5], in series [3], in series [8] and in series [4] was not below 80% throughout. Moreover, the pest or weed control at 200 ppm with Pyrenophora teres was not below 80%.

Consider `CCn1c(-n2ncnc2N)nc2cncc(/C(C)=N/OC/C=C\Cl)c21` [Compound 171], for which the inhibition at 20 ppm (in [7]; in the series with Sclerotinia sclerotiorum; in series [2]; in series [3]; in series [8]; in series [4]) was not below 80% throughout. Also, in the series on Gaeumannomyces graminis, the inhibition at 20 ppm is not below 80%. Further, the pest or weed control at 200 ppm (in series [1]; in the series on Pyrenophora teres) was not below 80% in each case.

As for `CCCn1c(-n2ncnc2N)nc2cncc(/C(C)=N\OCC=C(C)C)c21` [Compound 188], the inhibition at 20 ppm (in [7]; in the series on Sclerotinia sclerotiorum; in [2]; in [3]; in series [4]; with Gaeumannomyces graminis) was not below 80% throughout. In addition, the pest or weed control at 200 ppm (in [1]; in series [6]; in the series on Pyrenophora teres) was not below 80% each time.

`Nc1nc(-c2ccccc2)nn1-c1nc2cnccc2n1C1CCCCC1` [Example P1, 2-(1-cyclohexylimidazo[4,5-c]pyridin-2-yl)-5-phenyl-1,2,4-triazol-3-amine] showed a melting point of 222 to 225 °C.

Take `CCn1c(-n2ncnc2N)nc2c(Cl)ncc(-c3ccccc3C)c21` [Example P7, 2-[4-chloro-1-ethyl-7-(o-tolyl)imidazo[4,5-c]pyridin-2-yl]-1,2,4-triazol-3-amine]: the melting point lay in the range of 274 to 278 °C.

As for `CCn1c(-n2ncnc2N)nc2cncc(C(C)O)c21` (stereo not shown) [Example P8, 1-[2-(5-amino-1,2,4-triazol-1-yl)-1-ethyl-imidazo[4,5-c]pyridin-7-yl]ethanol], the melting point was in the range of 220 to 226 °C.

For the origin of these results see US9512120B2, “Microbicidally active imidazopyridine derivatives” (Syngenta Participations AG, priority 2013, dated 2016).
